Laboratory results reported in patent EP2608671B1, “COMPOUNDS FOR TREATMENT OF CANCER” (Gtx, Inc., priority 2010, dated 2012).
Like-named read-outs stand apart in the source and are kept apart here.

Assays:
B16-F1 = assay: SRB cell growth inhibition (cytotoxicity) assay; type: cell-based, mouse
Excerpt: (§1) The only compounds which belong to the invention are the ones falling under the scope of formula (XI).

A375 = assay: SRB cell growth inhibition (cytotoxicity) assay; type: cell-based, human
WM-164 = assay: SRB cell growth inhibition (cytotoxicity) assay; type: cell-based, human; settings: Homo sapiens
PC-3 = assay: cells; settings: Homo sapiens
Excerpt: as §1
Cells were stained with SRB solution.
Cells. […] Cells between the third and fifth passages were used for experiments.
Cell growth inhibition studies. […] Cells were stained with sulphorhodamine B (SRB) solution.

DU 145 = assay: cells; settings: Homo sapiens
LNCaP = assay: cells; settings: Homo sapiens
PPC-1 = assay: cells; settings: Homo sapiens
[1] = PC-3, read-out: IC50 (nM), PC-3
[2] = DU-145, read-out: IC50 (nM), DU 145
[3] = PPC-1, read-out: IC50 (nM), PPC-1
[4] = Mus musculus, B16-F1; read-out: IC50 ± SEM (nM), B16-F1
[5] = Homo sapiens, A-375, 96 h; read-out: IC50 ± SEM (nM), A375
[6] = WM164, SRB assay, 96 h, Table 2, read-out: IC50 ± SEM (nM), WM-164
[7] = PC-3, 96 h, read-out: IC50 ± SEM (nM), PC-3
[8] = DU-145, 96 h, read-out: IC50 ± SEM (nM), DU 145
[9] = 96 h, read-out: IC50 ± SEM (nM), LNCaP
[10] = PPC-1, 96 h, read-out: IC50 ± SEM (nM), PPC-1
[11] = Mus musculus; B16-F1 melanoma cells, 48 h, SRB; read-out: IC50 ± SEM (nM) B16-F1
[12] = Homo sapiens, A-375; A375 melanoma cells, 48 h, SRB; read-out: IC50 ± SEM (nM) A375
[13] = WM164 melanoma cells, 48 h, SRB, read-out: IC50 ± SEM (nM) WM164
[14] = DU-145, 96 h, read-out: IC50 ± SEM (nM) Du 145
[15] = Mus musculus, B16-F1, read-out: IC50 (nM), B16-F1
[16] = Homo sapiens, A-375, read-out: IC50 (nM), A375
[17] = WM164, read-out: IC50 (nM), WM164

## COc1cc(C(=NC#N)c2csc(-c3ccccc3)n2)cc(OC)c1O [compound 32, N-((4-hydroxy-3,5-dimethoxyphenyl)(2-phenylthiazol-4-yl)methylene)cyanamide]
B16-F1; Mus musculus, B16-F1; Table 6A; read-out: IC50 (nM), B16-F1
  IC50: > 10000 nM
A375; Homo sapiens, A-375; Table 6A; read-out: IC50 (nM), A375
  IC50: 2700 nM
WM-164; WM164, Table 6A, read-out: IC50 (nM), WM164
  IC50: 2600 nM
PC-3; [1]
  IC50: 2290 nM
DU 145; [2]
  IC50: 4600 nM
LNCaP; read-out: IC50 (nM), LNCaP
  IC50: 1660 nM
PPC-1; [3]
  IC50: 1170 nM

## CO/N=C(\c1cc(OC)c(OC)c(OC)c1)c1csc(-c2ccccc2)n1 [2f-trans, (E)-(2-Phenylthiazol-4-yl)(3,4,5-trimethoxyphenyl)methanone O-methyl oxime]
B16-F1; [4]
  IC50: > 10000 nM
A375; [5]
  IC50: > 10000 nM
WM-164; [6]
  IC50: > 10000 nM
PC-3; [7]
  IC50: > 10000 nM
DU 145; [8]
  IC50: > 10000 nM
LNCaP; [9]
  IC50: > 10000 nM
PPC-1; [10]
  IC50: > 10000 nM

## O=C(c1ccc(F)cc1)c1cn(S(=O)(=O)c2ccccc2)c(-c2ccccc2)n1 [11af, (4-fluorophenyl)(2-phenyl-1-(phenylsulfonyl)-1H-imidazol-4-yl)methanone]
B16-F1; [11]
  IC50: 946 ± 86 nM
A375; [12]
  IC50: 630 ± 72 nM
WM-164; [13]
  IC50: 596 ± 61 nM
PC-3; [7]
  IC50: 2230 nM
DU 145; [14]
  IC50: 846 nM
LNCaP; [9]
  IC50: 573 nM
PPC-1; [10]
  IC50: 575 nM

## COc1cc(C(=O)c2c[nH]c(-c3ccc(Br)cc3)n2)cc(OC)c1OC [12la, (2-(4-bromophenyl)-1H-imidazol-4-yl)(3,4,5-trimethoxyphenyl)methanone]
B16-F1; [11]
  IC50: 74 nM
A375; [12]
  IC50: 32 nM
WM-164; [13]
  IC50: 36 nM
PC-3; [7]
  IC50: 36 nM
DU 145; [14]
  IC50: 49 nM
LNCaP; [9]
  IC50: 34 nM
PPC-1; [10]
  IC50: 33 nM

## COc1cc(C(=O)c2c[nH]c(-c3ccc4[nH]c(C(=O)c5cc(OC)c(OC)c(OC)c5)cc4c3)n2)cc(OC)c1OC [15xaa, (5-(4-(3,4,5-Trimethoxybenzoyl)-1H-imidazol-2-yl)-1H-indol-2-yl)(3,4,5-trimethoxyphenyl)methanone]
B16-F1; [15]
  IC50: 1390 nM
A375; [16]
  IC50: 1800 nM
WM-164; [17]
  IC50: 1700 nM
PC-3; [1]
  IC50: 2630 nM
DU 145; [2]
  IC50: 5920 nM
LNCaP; read-out: IC50 (nM), LNCaP
  IC50: 1070 nM
PPC-1; [3]
  IC50: 4580 nM

## COc1cc(C(=O)c2cn(S(=O)(=O)c3ccccc3)c(-c3ccc(N(C)C)cc3)n2)cc(OC)c1OC [11ga, (2-(4-(dimethylamino)phenyl)-1-(phenylsulfonyl)-1H-imidazol-4-yl)(3,4,5-trimethoxyphenyl)methanone]
B16-F1; [11]
  IC50: 1200 ± 90 nM
A375; [12]
  IC50: 162 ± 13 nM
WM-164; [13]
  IC50: 308 ± 32 nM
PC-3; [7]
  IC50: 93 ± 6 nM
DU 145; [14]
  IC50: 99 ± 2 nM
LNCaP; [9]
  IC50: 62 ± 2 nM
PPC-1; [10]
  IC50: 72 ± 0.4 nM

## COc1cc(C(=O)c2cn(S(=O)(=O)c3ccccc3)c(-c3ccc4c(c3)cc(C(=O)c3cc(OC)c(OC)c(OC)c3)n4S(=O)(=O)c3ccccc3)n2)cc(OC)c1OC [16xaa, (1-(Phenylsulfonyl)-2-(1-(phenylsulfonyl)-2-(3,4,5-trimethoxybenzoyl)-1H-indol-5-yl)-1H-imidazol-4-yl)(3,4,5-trimethoxyphenyl)methanone]
B16-F1; [15]
  IC50: > 10000 nM
A375; [16]
  IC50: > 10000 nM
WM-164; [17]
  IC50: > 10000 nM
PC-3; [1]
  IC50: > 10000 nM
DU 145; [2]
  IC50: > 10000 nM
LNCaP; read-out: IC50 (nM), LNCaP
  IC50: > 10000 nM
PPC-1; [3]
  IC50: > 10000 nM

## CC(C)C[C@H](NC(=O)[C@H](Cc1ccccc1)NC(=O)c1cnccn1)B(O)O [Bortezomib, reference compound]
B16-F1; Mus musculus, B16-F1, read-out: IC50 ± SEM (nM) (n=3), B16-F1; Table 14A
  IC50: 24 ± 2 nM
A375; Homo sapiens, A-375, read-out: IC50 ± SEM (nM) (n=3), A375; Table 14A
  IC50: 8 ± 1 nM
WM-164; WM164, read-out: IC50 ± SEM (nM) (n=3), WM-164, Table 14A
  IC50: 8 ± 1 nM

## COc1cc(/C(=C/C#N)c2csc(-c3ccccc3)n2)cc(OC)c1OC [2c-trans, (Z)-3-(2-phenylthiazol-4-yl)-3-(3,4,5-trimethoxyphenyl)acrylonitrile]
B16-F1; Mus musculus, B16-F1, read-out: IC50 ± SEM (nM), B16-F1
  IC50: 5400 ± 2100 nM
A375; Homo sapiens, A-375, 96 h, read-out: IC50 ± SEM (nM), A375
  IC50: 4600 ± 1500 nM
WM-164; WM164, 96 h, read-out: IC50 ± SEM (nM), WM-164
  IC50: 4900 ± 1300 nM
PC-3; [7]
  IC50: 890 nM
DU 145; [8]
  IC50: 2280 nM
LNCaP; [9]
  IC50: 580 nM
PPC-1; [10]
  IC50: 900 nM

## COc1cc(Sc2cccc(-c3ccccc3)c2)cc(OC)c1OC [4a, Biphenyl-3-yl(3,4,5-trimethoxyphenyl)sulfane]
B16-F1; [4]
  IC50: 2400 ± 900 nM
A375; [5]
  IC50: 11600 ± 400 nM
WM-164; [6]
  IC50: 2000 nM
PC-3; [7]
  IC50: > 10000 nM
DU 145; [8]
  IC50: > 10000 nM
LNCaP; [9]
  IC50: 300 ± 200 nM
PPC-1; [10]
  IC50: 2300 ± 100 nM
